Source: patent US8952025B2, “Multifunctional radical quenchers and their uses” (Arizona Board of Regents, A Body Corporate of the State of …, priority 2010, dated 2015)
“Also recorded” adds a separate entry of the source.

Assays:
cytochrome c = assay: Cytochrome c reduction assay; assay type: biochemical; settings: 100 μM compound, 10 μM cytochrome c, absorbance 550 nm
Method: The rate of cytochrome c (10 μM) reduction was measured by monitoring the change in absorbance at 550 nm. Briefly the reaction was initiated by addition of 100 μM of the invention compounds to a mixture containing 50 mM phosphate buffer, 0.1 mM EDTA, pH 7.8, and 10 μM cytochrome c (Sigma, St. Louis, Mo. USA). For cytochrome c reduction by superoxide, xanthine oxidase (0.01 IU/mL) (Sigma, St. Louis, Mo. USA) was used in presence of xanthine (50 μM).

[1] = system: bovine heart mitochondrial membranes; assay: Thiobarbituric acid reactive species (TBARS) assay; assay type: biochemical; settings: H2O2 generated using glucose oxidase
Method: Lipid peroxidation by hydrogen peroxide in bovine heart mitochondrial membranes was determined by measuring the amount of thiobarbituric acid reactive substances released. Bovine heart mitochondria (1 mg protein) prepared as described by Smith (38) were added to 800 μL of 50 mM phosphate buffer, pH 8.0, and subjected to oxidative stress by the addition of 25 mM glucose and 1 U/mL glucose oxidase from Aspergillus niger. Samples were incubated with or without test compounds at 37° C. for 30 minutes. Two hundred μL each of 1% (w/v) thiobarbituric acid and 35% (v/v) perchloric acid, as well as 0.1% (w/v) butylated hydroxytoluene (from a 2% stock solution in DMSO) were added. Samples were heated at 100° C. for 15 minutes. One-mL aliquots of each sample were taken and diluted in 2 mL of water, then extracted once with 2 mL of n-butanol. […] TBARS were determined fluorometrically from the emission spectrum (λex 515 nm; λem 550 nm) using a Varian fluorimeter. The malondialdehyde concentration was determined based on a standard curve created using serial dilutions of 10 mM 1,1,3,3-tetraethoxypropane hydrolyzed in 1% (v/v) H2SO4 at 4° C. overnight. The malondialdehyde concentration was expressed as nmoles manoldialdehyde per mg protein. Protein in aliquots of the homogenates was determined by the bicinchoninic acid method.

CEM leukemia cells = assay: C11-BODIPY581/591 oxidation in cell culture (lipid peroxidation); assay type: cell-based, human; settings: 2.5 or 1 μM, pretreatment 4 or 24 hours, glutathione depleted
Method: Lipid peroxidation in CEM leukemia cells was detected by utilizing the oxidant-sensitive lipophilic probe C11 BODIPY^581/591. Briefly, CEM cells (5×10^5 cell/mL) were treated with the test compounds at final concentrations of 1 and 2.5 μM, and incubated at 37° C. for 4 or 24 h in a humidified atmosphere containing 5% CO2 in air. Cells were treated with 500 nM C11 BODIPY^581/591 in phenol red-free RPMI-1640 media and incubated at 37° C. in the dark for 30 minutes. The cells were washed twice with phosphate buffered saline and oxidative stress was induced with 5 mM DEM in phenol red-free RPMI-1640 media for 90 minutes. Treated cells were collected by centrifugation at 300×g for 3 minutes and then washed twice with phosphate buffered saline. Cells were resuspended in 250 μL of phosphate buffered saline and were analyzed by FACS (FACS Calibur flow cytometer, Becton Dickinson) to monitor the change in intensity of the C11 BODIPY^581/591-green (oxidized) fluorescence signal.

[2] = Stability of isolated free base on storage; assay type: physicochemical; settings: orange oil
Method: To a solution of 2.2 mg (4.4 μmol) acetyl ester 35 in 1 mL CH2Cl2 was added 17.5 μL (17.5 μmol) of DIBAL-H at −78° C. The reaction mixture was stirred at same temperature for 2 h than 1 mL of aqueous saturated sodium potassium tartrate was added slowly. The reaction mixture was allowed to warm to room temperature slowly add stirred for 3 h then separated. The aqueous layer was extracted with two portions of 5 mL of ethyl acetate. The combined organic layer was washed with brine, dried (Na2SO4) and concentrated under diminished pressure to give the product C as orange oil. HPLC found retain time in 21.82 min.

stability of isolated compound [2]	SMILES	reduction of cytochrome c (cytochrome c)	preventing TBARS formation [1]	protection against lipid peroxidation in cells (C11-BODIPY581/591 green fluorescence) (CEM leukemia cells)
	Cc1nc(N(C)C)nc(CCCCCCCCCCO)c1O [Compound A, 2-N,N-dimethylamino-5-hydroxy-4-methyl-6-(10-hydroxydecyl)-pyrimidine]	clearly reduce cytochrome c		
degenerated after one day	Cc1nc2c(c(CC[C@](C)(O)CCC[C@H](C)CCC[C@H](C)CCCC(C)C)c1O)CCN2C [Compound C, 4-((3R,7R,11R)-3-hydroxy-3,7,11,15-tetramethylhexadecyl)-1,6-dimethyl-2,3-dihydro-1H-pyrrolo[2,3-b]pyridine-5-ol]		more effective in preventing TBARS formation	better protection against lipid peroxidation than α-tocopherol in a concentration and time-dependent fashion; also recorded: clearly superior to α-tocopherol in quenching lipid peroxidation in a time- and dose-dependent fashion
